Laboratory results reported in article PMC11173002, “A Humanized CB1R Yeast Biosensor Enables Facile Screening of Cannabinoid Compounds” (International Journal of Molecular Sciences, 2024).
“Also recorded” adds a separate entry of the source. Like-named read-outs stand apart in the source and are kept apart here.

Tests used:
Type in all cases: cell-based
syn-pre-pro-Δ89-CB1R [1] = target: T1, syn-pre-pro-Δ89-CB1R (Homo sapiens, UniProt P21554); assay: cell-based; conditions: for EC50 values / activity in words: PINACA agonist series
T1 construct: expressed in transfected cells; host or cells: Saccharomyces cerevisiae BY4741-derived ZsGreen reporter strain (Gpa1-Gαi3 chimera; also sterol-modified strains ST01–ST15)
T1 sequence (P21554 90-472 limits assumed, stated change not applied): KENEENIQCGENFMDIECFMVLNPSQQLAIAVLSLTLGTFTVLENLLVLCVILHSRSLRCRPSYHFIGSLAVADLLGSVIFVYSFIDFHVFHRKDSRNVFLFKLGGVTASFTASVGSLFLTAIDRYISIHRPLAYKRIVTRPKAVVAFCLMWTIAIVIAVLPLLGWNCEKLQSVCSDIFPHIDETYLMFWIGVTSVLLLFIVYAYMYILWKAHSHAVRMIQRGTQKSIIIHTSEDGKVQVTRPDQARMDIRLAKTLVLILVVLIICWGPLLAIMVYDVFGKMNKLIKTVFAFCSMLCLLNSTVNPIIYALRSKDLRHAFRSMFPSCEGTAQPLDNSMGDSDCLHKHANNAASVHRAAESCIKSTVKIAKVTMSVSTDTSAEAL

CB1 Cannabinoid Receptor = target: T2, CB1 Cannabinoid Receptor (Homo sapiens, UniProt P21554); assay: Mammalian cell calcium assay (Gα15, Fluo-8 fluorescence); conditions: high concentrations (10 μM), four-point dose response
T2 construct: Since the human CB1R strain uses the full-length receptor; host or cells: Ready-to-Assay CB1 Cannabinoid Receptor Frozen Cells (commercial human cell line with promiscuous Gα15, division-arrested)
T2 sequence (P21554 whole entry): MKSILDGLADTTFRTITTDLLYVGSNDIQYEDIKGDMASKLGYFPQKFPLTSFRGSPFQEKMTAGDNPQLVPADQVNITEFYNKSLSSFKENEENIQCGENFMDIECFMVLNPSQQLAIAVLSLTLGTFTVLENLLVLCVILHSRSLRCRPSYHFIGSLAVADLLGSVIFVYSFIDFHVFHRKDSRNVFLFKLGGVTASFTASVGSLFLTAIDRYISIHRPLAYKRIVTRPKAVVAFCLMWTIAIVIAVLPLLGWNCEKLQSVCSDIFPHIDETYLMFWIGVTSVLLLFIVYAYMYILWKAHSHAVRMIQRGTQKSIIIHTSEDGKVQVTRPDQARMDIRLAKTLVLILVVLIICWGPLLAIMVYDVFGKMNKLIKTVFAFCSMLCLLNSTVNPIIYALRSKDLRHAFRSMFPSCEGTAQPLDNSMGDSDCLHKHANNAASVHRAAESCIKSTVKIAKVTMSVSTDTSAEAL
Method: To validate the findings and further evaluate the performance of our yeast screening assay, we retested a subset of our library in a conventional mammalian cell assay. We acquired human cell lines depleted of native GPCRs and containing the promiscuous Gα15, wherein GPCR activation triggers intracellular calcium release, which is measured by Fluo-8 fluorescence (see Section 4). We selected eight compounds for side-by-side testing between the yeast and human host for CB1R (Figure 4a–d). To maximize the number of compounds tested per plate, we performed a limited four-point dose response on the mammalian cells (Figure 4a,b).
Mammalian cell assays were performed in Eurofins Ready-to-Assay™ CB1 Cannabinoid Receptor Frozen Cells. Cells were division-arrested, which limited the number of samples that could be measured, so a limited 4-point dose response was performed. Cells were seeded in 96-well plates and grown for 24 h. Cells were washed with Hank’s Balanced Salt Solution (HBSS) with 20 mM HEPES and 2.5 mM Probenecid at pH 7.4. […] Cells with dye were incubated at 37 °C for 1 h before fluorescent measurement on a Flexstation 3-plate reader (Molecular Devices, San Jose, CA, USA). Baseline fluorescence was measured for 10 s before 50 μL ligands were injected into 100 μL cells. Samples were measured for 180 s and recorded values were measured as ΔF/F0 (Fmax − Fmin/Fmin).

Syn-pre-pro CB1R = target: T3, Syn-pre-pro CB1R (Homo sapiens, UniProt P21554); assay: Yeast ZsGreen reporter strain with full-length syn-pre-pro CB1R
T3 construct: expressed in transfected cells; host or cells: Saccharomyces cerevisiae BY4741-derived ZsGreen reporter strain (Gpa1-Gαi3 chimera)
T3 sequence (P21554 whole entry): as above

Δ89-CB1R = target: T4, Δ89-CB1R (Homo sapiens, UniProt P21554); assay: Yeast ZsGreen reporter strain with N-terminally truncated CB1R
T4 construct: expressed in transfected cells; host or cells: Saccharomyces cerevisiae BY4741-derived ZsGreen reporter strain (Gpa1-Gαi3 chimera)
T4 sequence (P21554 with tags, fused parts or gaps): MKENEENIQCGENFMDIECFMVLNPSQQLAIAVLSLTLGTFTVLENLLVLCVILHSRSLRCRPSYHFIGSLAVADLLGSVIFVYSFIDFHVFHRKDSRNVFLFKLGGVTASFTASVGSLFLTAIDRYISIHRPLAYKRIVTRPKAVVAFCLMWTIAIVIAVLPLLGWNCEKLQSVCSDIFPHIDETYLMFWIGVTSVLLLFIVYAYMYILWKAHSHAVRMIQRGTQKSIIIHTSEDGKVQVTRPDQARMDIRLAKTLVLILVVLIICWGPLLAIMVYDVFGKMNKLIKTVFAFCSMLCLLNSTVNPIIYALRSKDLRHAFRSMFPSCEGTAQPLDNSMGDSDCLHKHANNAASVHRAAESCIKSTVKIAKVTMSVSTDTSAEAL

syn-pre-pro-Δ89-CB1R [2] = target: T1, syn-pre-pro-Δ89-CB1R; assay: syn-pre-pro-Δ89-CB1R dose response in sterol-modified yeast strains ST01–ST15
Source text: Ergosterol and cholesterol share a common zymosterol precursor that can be converted to cholesterol through a four-enzyme pathway that produces seven downstream metabolites (Figure 2b). We recently replaced the native yeast sterol pathway with cholesterol biosynthesis enzymes to create a small library of yeast strains that produce varying levels of these seven metabolites in the GpaI-Gai3 chimeric ZsGreen human GPCR reporter strain [30]. The syn-pre-pro-Δ89-CB1R expression construct was transformed into fifteen strains (ST01–ST15, Figure 2c, Supplementary Table S1) selected to cover the metabolic and structural sterol space. We then performed dose response experiments with ACEA and measured the ZsGreen via fluorescent cytometry.
Yeast colonies were picked and grown overnight to saturation in pH 5.8 SD-His media in a 2.2 mL deep well plate (Axygen, Corning, NY, USA), grown in a plate-shaking incubator (30 °C, 1000 rpm, 3 mm orbital). In the morning, cultures were diluted to 1:10 or 1:25 in SD-His media buffered to pH 7.1 with 100 mM MOPSO (unless otherwise specified). Ligands were added to the culture and incubated with shaking for 8 h. Cells were then washed three times with ice-cold Tris buffer (pH 7) and diluted to 1:20 for cytometry. All cytometry was performed on a Sony SA3800 spectral analyzer. Each sample was tested for 10,000 events and read at a rate of 1000 events per second. All assays as reported here were filtered only for singlet populations.

WT CB1R = target: T5, WT CB1R (Homo sapiens, UniProt P21554)
T5 construct: expressed in transfected cells; host or cells: Saccharomyces cerevisiae BY4741-derived ZsGreen reporter strain (Gpa1-Gαi3 chimera)
T5 sequence (P21554 whole entry): as the sequence (P21554 whole entry) above

[3] = FUBINACA and PINACA compounds, 8 h, n = 3 (Figure 3), read-out: EC50, dose response
[4] = Supplementary Table S2, read-out: EC50 (M) Yeast CB1R
[5] = read-out: EC50, ACEA dose response
[6] = compound at 10 nM, screen, n = 1

CC[C@H](C)[C@H](NC(=O)c1nn(CCCCCF)c2ccccc12)C(N)=O (single isomer, unassigned) [5-fluoro ADB-PINACA isomer 2]
EC50 values / activity in words (syn-pre-pro-Δ89-CB1R [1]): drastic loss of activity | activity in the yeast assay (syn-pre-pro-Δ89-CB1R [1]; side-by-side with mammalian cells, high concentrations (10 μM), listed as 5-fluoro 2-ADB-PINACA isomer 2): lowest activity; also recorded: partial agonism | induction of calcium dye fluorescence (CB1 Cannabinoid Receptor): failed to induce significant levels of fluorescence

CCCC(NC(=O)c1nn(Cc2ccc(F)cc2)c2ccccc12)C(N)=O (single isomer, unassigned) [AB-FUBINACA isomer 1]
maximal signaling in dose response (syn-pre-pro-Δ89-CB1R [1]): high maximal signaling | EC50 (syn-pre-pro-Δ89-CB1R [1]; [3]): 1e-11 M | EC50 (syn-pre-pro-Δ89-CB1R [1]; [4]): 4.74e-10 M

CCC(C)(NC(=O)c1nn(Cc2ccc(F)cc2)c2ccccc12)C(N)=O (single isomer, unassigned) [AB-FUBINACA isomer 2]
maximal signaling in dose response (syn-pre-pro-Δ89-CB1R [1]): lower response | EC50 (syn-pre-pro-Δ89-CB1R [1]; [3]): 2.3e-10 M

CCC(C(N)=O)N(C)C(=O)c1nn(Cc2ccc(F)cc2)c2ccccc12 (single isomer, unassigned) [AB-FUBINACA isomer 5]
maximal signaling in dose response (syn-pre-pro-Δ89-CB1R [1]): lower response | EC50 (syn-pre-pro-Δ89-CB1R [1]; [3]): 1.59e-08 M

O=C(Oc1cccc2cnccc12)c1cn(CCCCCF)c2ccccc12 [5-fluoro PB-22 5-hydroxyisoquinoline isomer]
EC50 (syn-pre-pro-Δ89-CB1R [1]; [4]): 9.09e-12 M

CC(C)=CCCC(C)CCO (stereo not drawn) [(+)-β-Citronellol]
activity in terpene library screen (syn-pre-pro-Δ89-CB1R [1]): found to activate CB1R

CC(C)[C@H](NC(=O)c1cn(Cc2ccccc2)c2ccccc12)C(N)=O [AB-BICA]
EC50 (syn-pre-pro-Δ89-CB1R [1]; [4]): 5.66e-09 M

CC(C)C(NC(=O)c1nn(Cc2ccc(F)cc2)c2ccccc12)C(N)=O (stereo not drawn) [AB-FUBINACA]
maximal activity (syn-pre-pro-Δ89-CB1R [1]): 79–84% | maximal signaling in dose response (syn-pre-pro-Δ89-CB1R [1]): high maximal signaling | EC50 (syn-pre-pro-Δ89-CB1R [1]; EC50 (M) Yeast CB1R): 1.13e-11 M | EC50 (syn-pre-pro-Δ89-CB1R [1]; EC50, dose response): 6.6e-10 M

CCCCCn1nc(C(=O)NC(C(N)=O)C(C)C)c2ccccc21 (stereo not drawn) [AB-PINACA]
maximal activity (syn-pre-pro-Δ89-CB1R [1]): 79–84% | EC50 (syn-pre-pro-Δ89-CB1R [1]; [3]): 1.21e-09 M | EC50 values / activity in words (syn-pre-pro-Δ89-CB1R [1]): low nanomolar range

CCCCC/C=C\C/C=C\C/C=C\C/C=C\CCCC(=O)NCCCl [ACEA, Arachidonyl-2′-chloroethylamide]
EC50 (Syn-pre-pro CB1R; Syn-pre-pro CB1R in yeast, 8 h, n = 3, read-out: EC50, ACEA dose response): 40 nM | fold activation (Syn-pre-pro CB1R; syn-pre-pro modification alone): approximately 7 fold | fold activation (Δ89-CB1R; truncated receptor): 15 fold | EC50 (Δ89-CB1R; Δ89-CB1R in yeast, 8 h, n = 3, read-out: EC50, ACEA dose response): 5050 nM | Fold Change CB1R (syn-pre-pro-Δ89-CB1R [1]): 93.6 ± 15.6 fold | drop in sensitivity compared to the full-length syn-pre-pro construct (syn-pre-pro-Δ89-CB1R [1]): 3.8 fold | fold activation (syn-pre-pro-Δ89-CB1R [1]): 28 fold | EC50 (syn-pre-pro-Δ89-CB1R [1]; [5]): 1.5e-07 M | Fold Change CB1R (syn-pre-pro-Δ89-CB1R [2]; Strain ST01): 73.2 fold | EC50 (syn-pre-pro-Δ89-CB1R [2]; Strain ST01, read-out: EC50): 73 nM | EC50 (syn-pre-pro-Δ89-CB1R [2]; Strain ST02, read-out: EC50): 305 nM | EC50 (syn-pre-pro-Δ89-CB1R [2]; Strain ST03, read-out: EC50): 144 nM | EC50 (syn-pre-pro-Δ89-CB1R [2]; Strain ST04, read-out: EC50): 96 nM | EC50 (syn-pre-pro-Δ89-CB1R [2]; Strain ST05, read-out: EC50): 107 nM | EC50 (syn-pre-pro-Δ89-CB1R [2]; Strain ST06, read-out: EC50): 74 nM | EC50 (syn-pre-pro-Δ89-CB1R [2]; Strain ST08, read-out: EC50): 102 nM | EC50 (syn-pre-pro-Δ89-CB1R [2]; Strain ST09, read-out: EC50): 134 nM | EC50 (syn-pre-pro-Δ89-CB1R [2]; Strain ST10, read-out: EC50): 253 nM | EC50 (syn-pre-pro-Δ89-CB1R [2]; Strain ST11, read-out: EC50): 160 nM | EC50 (syn-pre-pro-Δ89-CB1R [2]; Strain ST12, read-out: EC50): 140 nM | Fold Change CB1R (syn-pre-pro-Δ89-CB1R [2]; Strain ST13): 34.3 fold | EC50 (syn-pre-pro-Δ89-CB1R [2]; Strain ST13, read-out: EC50): 99 nM | EC50 (syn-pre-pro-Δ89-CB1R [2]; Strain ST14, read-out: EC50): 640 nM | EC50 (syn-pre-pro-Δ89-CB1R [2]; Strain ST15, read-out: EC50): 604 nM | EC50 (syn-pre-pro-Δ89-CB1R [2]; cholesterol intermediate strain ST07, text value, read-out: EC50): 65 nM | EC50 (syn-pre-pro-Δ89-CB1R [2]; mean over ST01–ST15, read-out: average EC50 value across the intermediate strains): 199 nM | fold signaling (activation) (WT CB1R): < 4 fold | EC50 (WT CB1R; [5]): 1300 nM

CCCCCn1nc(C(=O)NC(C(N)=O)C(C)(C)C)c2ccccc21 (stereo not drawn) [ADB-PINACA]
maximal activity (syn-pre-pro-Δ89-CB1R [1]): 79–84% | EC50 (syn-pre-pro-Δ89-CB1R [1]; [3]): 9e-11 M | EC50 values / activity in words (syn-pre-pro-Δ89-CB1R [1]): low nanomolar range | EC50 (syn-pre-pro-Δ89-CB1R [1]; [4]): 8.34e-12 M

CCCCCCC(C)(C)c1cc(O)c2c(c1)OC(C)(C)[C@H]1CC=C(CO)C[C@H]21 [HU-211]
relative fluorescence of the ACEA positive control (syn-pre-pro-Δ89-CB1R [1]): less than 25%

Cc1c(C(=O)c2ccccc2)c(N)c(-c2ccccc2)n1Cc1ccc(Cl)cc1 [URB447]
relative fluorescence of the ACEA positive control (syn-pre-pro-Δ89-CB1R [1]; [6]): less than 25%

COc1ccc(C(=O)c2c(C)n(CCN3CCOCC3)c3cc(Br)ccc23)cc1 [WIN54,461]
relative fluorescence of the ACEA positive control (syn-pre-pro-Δ89-CB1R [1]; [6]): less than 25%

C=C1CCC[C@]2(C)CC[C@@H](C(C)(C)O)C[C@@H]12 [β-Eudesmol]
activity in terpene library screen (syn-pre-pro-Δ89-CB1R [1]): found to activate CB1R | signaling in terpene dose response (syn-pre-pro-Δ89-CB1R [1]; dose response, n = 3): showed signaling at high (10 µM) concentrations
